In brackets after ≈: the same amount, converted by molar mass. Read-outs that look alike come from different tables or passages of the source.
Key:
[1] = tested on: K pneumoniae Ecl8 ΔramR pSU18:NDM-1; assay: MIC by broth microdilution; format: cell-based; conditions: Ecl8 ΔramR pSU18:NDM-1; for MIC: Klebsiella pneumoniae; for Meropenem MIC (25 μg ml^−1 2): with 25 μg ml^−1 2
Text: (§1) Bacterial strains: E. coli ATCC 25922 (ref. [35]) and K. pneumoniae NCTC 5055 (ref. [36]) were used as reference strains. K. pneumoniae Ecl8 (ref. [16]) and its ramR knock-out[37] were used as previously described. K. pneumoniae strain IR8 (ref. [40]), and E. coli strains IR10 and IR60 (ref. [17]) were generous gifts of Prof. T.R. Walsh. Plasmid pSU18:NDM-1 contains the complete blaNDM-1 open reading frame, together with its promoter, cloned into plasmid pSU18 (ref. [41]). The recombinant plasmid was made by PCR amplifying the blaNDM-1 gene and surrounding sequences from E. coli IR10 with primers NDM1F 5′- […] -3′ and NDM1R 5′- GGCGATGACAGCATCATC -3′, TA cloning the amplicon into pCR2.1 TOPO (Invitrogen) and subcloning into pSU18 using BamHI and XbaI.
(§2) MIC values were determined by broth microdilution, in triplicate, in cation-adjusted Mueller Hinton broth (Sigma) according to the Clinical Laboratory Standards Institute (CLSI) guidelines. Experiments were carried out in microtitre plates (Corning) containing the medium plus meropenem (Sequoia Research Products, Pangbourne, UK) and/or inhibitor 2 as appropriate. Chloramphenicol (20 μg ml^−1) was included in assays of strains (K. pneumoniae Ecl8 and derivative) that carried pSU18 plasmids or derivatives (pSU18:NDM-1) to ensure maintenance of plasmids throughout. Inhibitor 2 was dissolved in DMSO to 100 mg ml^−1 and diluted in broth. The final concentration of DMSO in the assays was kept constant at 0.01% (experiments using 10 μg ml^−1 inhibitor) or 0.03% (experiments using 25 μg ml^−1 inhibitor). Plates were incubated overnight at 37 °C for 18–24 h and absorbance at 600 nm read using a Polarstar Omega (BMG LabTech) plate reader.

[2] = tested on: K pneumoniae Ecl8 ΔramR pSU18; assay: MIC by broth microdilution; format: cell-based; conditions: Klebsiella pneumoniae
Text: as §1, §2

E. coli IR10 = assay: MIC by broth microdilution; format: cell-based; conditions: Escherichia coli
Text: as §1, §2

E. coli IR60 = assay: MIC by broth microdilution; format: cell-based; conditions: Escherichia coli
Text: as §1, §2

K. pneumoniae Ecl8 pSU18 = assay: MIC by broth microdilution; format: cell-based; conditions: Klebsiella pneumoniae
Text: as §1, §2

[3] = tested on: K. pneumoniae Ecl8 pSU18:NDM-1; assay: MIC by broth microdilution and checkerboard; format: cell-based; conditions: for MIC: Klebsiella pneumoniae
Text: as §1, §2

K. pneumoniae IR8 = assay: microbe, parasite or virus in culture; format: cell-based; conditions: Klebsiella pneumoniae, K. pneumoniae IR8
Text: as §1, §2

OXA-10 = target: T1, OXA-10 (Pseudomonas aeruginosa, UniProt P14489); assay: Fluorogenic β-lactamase inhibition assay (FC-5 substrate), OXA-10; format: biochemical; conditions: for IC50: 10 min preincubation
T1 construct: made in house; host or cells: E. coli
T1 sequence (P14489 20-266, species assumed): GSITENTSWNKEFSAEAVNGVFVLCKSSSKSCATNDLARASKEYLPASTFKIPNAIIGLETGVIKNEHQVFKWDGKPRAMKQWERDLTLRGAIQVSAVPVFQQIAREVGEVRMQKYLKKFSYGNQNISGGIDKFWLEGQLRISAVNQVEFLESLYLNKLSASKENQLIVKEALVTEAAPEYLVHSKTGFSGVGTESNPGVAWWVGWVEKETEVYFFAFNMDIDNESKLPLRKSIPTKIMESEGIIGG
Procedure: (§3) Kinetic and inhibition analyses, and ^19F NMR studies[10] against bacterial β-lactamases were performed as described. The FC-5 cephalosporin[9] was used as substrate for BcII, VIM-2, IMP-1, NDM-1, SPM-1, TEM-1 and OXA-10, meropenem[28] for CphA and nitrocefin[34] for PBP 3 and PBP 5.
(§4) In brief IC50 values were determined by preincubation of the appropriate amount of enzyme with the cyclic boronates in the assay buffers for 10 min at room temperature prior to the initiation of the assay by the addition of the appropriate substrate. The enzyme concentrations used are the following: 1 nM BcII, 100 nM VIM-2, 10 nM IMP-1, 10 nM NDM-1, 1 nM SPM-1, 1 nM TEM-1, 1 nM OXA-10, 2.5 nM CphA, 4 μM PBP 3 and 5 μM PBP 5; note that the final concentrations are stated. The assay buffers used are the following: 50 mM HEPES, pH 7.2 supplemented with 1 μg BSA, 1 μg ZnSO4 and 0.01% Triton for BcII, VIM-2, IMP-1, NDM-1 and SPM-1, 15 mM MES, pH 6.5 for CphA, 50 mM HEPES, pH 7.2 supplemented with 200 mM NaCl and 0.01% Triton 100 for TEM-1, 100 mM sodium phosphate, pH 7.2 supplemented with 50 mM NaHCO3 and 0.01% Triton 100 for OXA-10 and 50 mM HEPES, pH 7.2 supplemented with 200 mM NaCl and 0.01% Triton 100 for PBP 3 and PBP 5. The amount of substrates used is the following: 5 μM for BcII, VIM-2, IMP-1, NDM-1 and SPM-1, 10 μM for TEM-1 and OXA-10, 125 μM for CphA and 25 μM for PBP 3 and PBP 5; note that the final concentrations are stated.
(§5) The experiments were performed using a PHERAstar FS microplate reader (BMG Labtech) at room temperature (24–25 °C). All enzymes and inhibitors were prepared in the specific assay buffer. The kinetic values in this study are the means from at least three independent measurements; at least nine different concentrations of the inhibitor were used to determine the kinetic parameters (IC50). The IC50 values were determined using the software package Graph Prism 5.

SPM-1 = SPM-1 (Pseudomonas aeruginosa, UniProt Q8G9Q0); assay: Fluorogenic β-lactamase inhibition assay (FC-5 substrate), SPM-1; format: biochemical; conditions: for IC50: 10 min preincubation
Sequence of SPM-1 (Q8G9Q0 entry or part of it): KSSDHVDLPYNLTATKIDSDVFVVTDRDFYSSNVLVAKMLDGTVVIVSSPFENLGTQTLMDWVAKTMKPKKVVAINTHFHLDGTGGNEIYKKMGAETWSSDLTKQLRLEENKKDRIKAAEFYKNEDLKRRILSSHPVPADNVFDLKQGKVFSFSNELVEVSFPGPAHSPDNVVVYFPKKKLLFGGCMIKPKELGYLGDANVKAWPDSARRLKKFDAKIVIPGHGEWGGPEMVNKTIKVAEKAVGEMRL
Procedure: as §3, §4, §5

NDM-1 = target: T2, NDM-1 (Klebsiella pneumoniae, UniProt C7C422); assay: Fluorogenic β-lactamase inhibition assay (FC-5 substrate), NDM-1; format: biochemical; conditions: for IC50: 10 min preincubation
T2 construct: made in house; host or cells: E. coli
T2 sequence (C7C422 29-270, looked up, species assumed): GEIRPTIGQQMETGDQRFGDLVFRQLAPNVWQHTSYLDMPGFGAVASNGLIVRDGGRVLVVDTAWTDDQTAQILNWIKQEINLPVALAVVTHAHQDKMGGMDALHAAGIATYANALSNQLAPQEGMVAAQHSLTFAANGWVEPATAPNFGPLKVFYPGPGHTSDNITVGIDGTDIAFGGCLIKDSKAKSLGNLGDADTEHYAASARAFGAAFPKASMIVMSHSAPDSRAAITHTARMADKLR
Procedure: as §3, §4, §5

BcII = target: T3, BcII (Bacillus cereus, UniProt P04190); assay: Fluorogenic β-lactamase inhibition assay (FC-5 substrate), BcII; format: biochemical; conditions: for IC50: 10 min preincubation
T3 construct: made in house; host or cells: E. coli
T3 sequence (P04190 31-257): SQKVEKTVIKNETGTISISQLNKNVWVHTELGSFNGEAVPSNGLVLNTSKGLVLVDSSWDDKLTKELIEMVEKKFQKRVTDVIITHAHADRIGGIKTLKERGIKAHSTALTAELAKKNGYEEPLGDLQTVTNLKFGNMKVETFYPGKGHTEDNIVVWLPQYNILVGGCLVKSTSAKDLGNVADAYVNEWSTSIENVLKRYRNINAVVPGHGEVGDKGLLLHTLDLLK
Procedure: as §3, §4, §5

CphA = target: T4, CphA (Aeromonas hydrophila, UniProt P26918); assay: B2 MBL inhibition assay (meropenem substrate), CphA; format: biochemical, Aeromonas hydrophilia; conditions: for IC50: 10 min preincubation
T4 construct: made in house; host or cells: E. coli
T4 sequence (P26918 28-254): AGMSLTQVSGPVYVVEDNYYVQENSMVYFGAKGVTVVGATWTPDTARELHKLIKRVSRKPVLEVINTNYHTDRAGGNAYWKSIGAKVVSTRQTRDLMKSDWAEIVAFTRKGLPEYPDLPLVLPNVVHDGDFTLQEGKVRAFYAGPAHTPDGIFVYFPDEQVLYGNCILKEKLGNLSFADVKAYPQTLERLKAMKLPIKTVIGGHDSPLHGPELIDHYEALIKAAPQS
Procedure: as §3, §4, §5

PBP 3 = target: T5, PBP 3 (Pseudomonas aeruginosa, UniProt G3XD46); assay: PBP inhibition assay (nitrocefin substrate), PBP 3; format: biochemical; conditions: NI = no inhibition at 100 μM, read-out: IC50 (μM)/pIC50 (converted)
T5 construct: made in house; host or cells: E. coli
T5 sequence (G3XD46 whole entry): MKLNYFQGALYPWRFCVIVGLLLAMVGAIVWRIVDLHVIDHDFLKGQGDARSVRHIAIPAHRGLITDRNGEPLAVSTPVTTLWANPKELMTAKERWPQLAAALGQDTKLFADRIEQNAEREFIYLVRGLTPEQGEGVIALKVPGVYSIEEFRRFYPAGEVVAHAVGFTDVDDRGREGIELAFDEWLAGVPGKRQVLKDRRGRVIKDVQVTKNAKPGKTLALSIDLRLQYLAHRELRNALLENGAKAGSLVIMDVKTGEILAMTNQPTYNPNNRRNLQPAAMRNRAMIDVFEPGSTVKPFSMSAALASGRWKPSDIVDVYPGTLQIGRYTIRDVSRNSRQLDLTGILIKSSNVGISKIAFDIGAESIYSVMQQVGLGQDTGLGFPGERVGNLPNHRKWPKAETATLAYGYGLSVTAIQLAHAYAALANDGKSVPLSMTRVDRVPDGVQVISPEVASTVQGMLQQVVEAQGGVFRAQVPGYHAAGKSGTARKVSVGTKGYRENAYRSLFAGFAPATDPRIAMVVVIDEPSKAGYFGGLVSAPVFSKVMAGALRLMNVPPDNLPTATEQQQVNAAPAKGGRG
Procedure: as §3, §4, §5

VIM-2 = target: T6, VIM-2 (Escherichia coli, UniProt Q5U7L7); assay: Fluorogenic β-lactamase inhibition assay (FC-5 substrate), VIM-2; format: biochemical; conditions: for IC50: 10 min preincubation
T6 construct: made in house; host or cells: E. coli
Procedure: as §3, §4, §5

TEM-1 = target: T7, TEM-1 (Escherichia coli, UniProt P62593); assay: Fluorogenic β-lactamase inhibition assay (FC-5 substrate), TEM-1; format: biochemical; conditions: for IC50: 10 min preincubation
T7 construct: made in house; host or cells: E. coli
T7 sequence (P62593 24-286 limits assumed): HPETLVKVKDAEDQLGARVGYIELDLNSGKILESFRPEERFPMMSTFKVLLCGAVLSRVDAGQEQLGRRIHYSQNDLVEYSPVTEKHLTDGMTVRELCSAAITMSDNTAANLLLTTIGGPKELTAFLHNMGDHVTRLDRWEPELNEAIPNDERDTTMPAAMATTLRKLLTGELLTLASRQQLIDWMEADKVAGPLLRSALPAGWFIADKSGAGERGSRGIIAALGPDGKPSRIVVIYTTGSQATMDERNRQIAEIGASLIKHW
Procedure: as §3, §4, §5

IMP-1 = target: T8, IMP-1 (Serratia marcescens, UniProt P52699); assay: Fluorogenic β-lactamase inhibition assay (FC-5 substrate), IMP-1; format: biochemical
T8 construct: made in house; host or cells: E. coli
T8 sequence (P52699 19-246, looked up, species assumed): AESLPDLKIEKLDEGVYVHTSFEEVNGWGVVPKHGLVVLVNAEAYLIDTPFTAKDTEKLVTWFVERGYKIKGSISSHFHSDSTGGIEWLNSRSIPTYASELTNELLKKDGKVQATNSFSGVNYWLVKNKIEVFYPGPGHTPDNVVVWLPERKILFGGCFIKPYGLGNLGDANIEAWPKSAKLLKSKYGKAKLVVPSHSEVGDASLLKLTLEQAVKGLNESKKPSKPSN
Procedure: as §3
In brief IC50 values were determined by preincubation of the appropriate amount of enzyme with the cyclic boronates in the assay buffers for 10 min at room temperature prior to the initiation of the assay by the addition of the appropriate substrate. The enzyme concentrations used are the following: 1 nM BcII, 100 nM VIM-2, 10 nM IMP-1, 10 nM NDM-1, 1 nM SPM-1, 1 nM TEM-1, 1 nM OXA-10, 2.5 nM CphA, 4 μM PBP 3 and 5 μM PBP 5; note that the final concentrations are stated. […]
The experiments were performed using a PHERAstar FS microplate reader (BMG Labtech) at room temperature (24–25 °C). […] The IC50 values were determined using the software package Graph Prism 5.

C[C@@H](O)[C@H]1C(=O)N2C(C(=O)O)=C(S[C@@H]3CN[C@H](C(=O)N(C)C)C3)[C@H](C)[C@H]12 [Meropenem, meropenem]
MIC ([1]; read-out: Meropenem MIC (10 μg ml^−1 2), with 10 μg ml^−1 2): 16 µg/mL (≈ 41.7 µM)
MIC ([1]; read-out: Meropenem MIC, meropenem alone): > 128 µg/mL
Meropenem MIC (25 μg ml^−1 2) [1]: 2 µg/mL
Meropenem MIC (25 μg ml^−1 2) ([1]; listed as meropenem): < 8 µg/mL
MIC ([2]; read-out: Meropenem MIC): ≤ 0.25 µg/mL
MIC ([2]; read-out: Meropenem MIC (10 μg ml^−1 2)): ≤ 0.25 µg/mL
MIC ([2]; read-out: Meropenem MIC (25 μg ml^−1 2)): ≤ 0.25 µg/mL
MIC (E. coli IR10; IR10, read-out: Meropenem MIC): 128 µg/mL (≈ 334 µM)
MIC (E. coli IR10; IR10, read-out: Meropenem MIC (10 μg ml^−1 2)): 8 µg/mL (≈ 20.9 µM)
MIC (E. coli IR10; IR10, read-out: Meropenem MIC (25 μg ml^−1 2)): 2 µg/mL (≈ 5.22 µM)
MIC (E. coli IR60; IR60, read-out: Meropenem MIC): 64 µg/mL (≈ 167 µM)
MIC (E. coli IR60; IR60, read-out: Meropenem MIC (10 μg ml^−1 2)): 16 µg/mL (≈ 41.7 µM)
MIC (E. coli IR60; IR60, read-out: Meropenem MIC (25 μg ml^−1 2)): 16 µg/mL (≈ 41.7 µM)
MIC (K. pneumoniae Ecl8 pSU18; ECL8PSU18, read-out: Meropenem MIC): ≤ 0.25 µg/mL
MIC (K. pneumoniae Ecl8 pSU18; ECL8PSU18, read-out: Meropenem MIC (10 μg ml^−1 2)): ≤ 0.25 µg/mL
MIC (K. pneumoniae Ecl8 pSU18; ECL8PSU18, read-out: Meropenem MIC (25 μg ml^−1 2)): ≤ 0.25 µg/mL
MIC ([3]; read-out: Meropenem MIC (10 μg ml^−1 2), with 10 μg ml^−1 2, Ecl8 pSU18:NDM-1): 8 µg/mL
MIC ([3]; read-out: Meropenem MIC (25 μg ml^−1 2), with 25 μg ml^−1 2, Ecl8 pSU18:NDM-1): < 8 µg/mL
MIC ([3]; read-out: Meropenem MIC, checkerboard, 2 at 0 μg mL-1): 128 µg/mL
MIC ([3]; read-out: Meropenem MIC, checkerboard, 2 at 0.5 μg mL-1): 64 µg/mL
MIC ([3]; read-out: Meropenem MIC, checkerboard, 2 at 1 μg mL-1): 32 µg/mL
MIC ([3]; read-out: Meropenem MIC, checkerboard, 2 at 2 μg mL-1): 32 µg/mL
MIC ([3]; read-out: Meropenem MIC, checkerboard, 2 at 4 μg mL-1): 16 µg/mL
MIC ([3]; read-out: Meropenem MIC, checkerboard, 2 at 8 μg mL-1): 8 µg/mL
MIC ([3]; read-out: Meropenem MIC, checkerboard, 2 at 16 μg mL-1): 4 µg/mL
MIC ([3]; read-out: Meropenem MIC, checkerboard, 2 at 32 μg mL-1): 2 µg/mL
MIC ([3]; read-out: Meropenem MIC, checkerboard, 2 at 64 μg mL-1): ≤ 1 µg/mL
MIC ([3]; read-out: Meropenem MIC, meropenem alone, Ecl8 pSU18:NDM-1): > 128 µg/mL
Meropenem MIC (25 μg ml^−1 2) ([3]; with 25 μg ml^−1 2, Ecl8 pSU18:NDM-1): 4 µg/mL
MIC (K. pneumoniae IR8; meropenem alone, read-out: Meropenem MIC): 128 µg/mL (≈ 334 µM)
MIC (K. pneumoniae IR8; with 10 μg ml^−1 2, read-out: Meropenem MIC (10 μg ml^−1 2)): 32 µg/mL (≈ 83.4 µM)
MIC (K. pneumoniae IR8; with 25 μg ml^−1 2, read-out: Meropenem MIC (25 μg ml^−1 2)): 16 µg/mL (≈ 41.7 µM)

NCC1CCC(C(=O)N[C@H]2Cc3cccc(C(=O)O)c3O[B-]2(O)O)CC1 (some centres unmarked) [compound 3]
pIC50 (OXA-10): 6.0
IC50 (OXA-10): 830 nM
pIC50 (SPM-1): 4.8
IC50 (SPM-1): 16000 nM
pIC50 (NDM-1): 6.1
IC50 (NDM-1): 687 nM
pIC50 (BcII): 6.0
IC50 (BcII): 960 nM
pIC50 (CphA): 4.68
IC50 (CphA): 20800 nM
IC50 (PBP 3): > 100 µM
pIC50 (VIM-2): 7.9
IC50 (VIM-2): 11 nM
pIC50 (TEM-1): 8.5
IC50 (TEM-1): 2 nM

O=C(N[C@H]1Cc2cccc(C(=O)O)c2O[B-]1(O)O)c1ccc(CN2CCNCC2)cc1 [compound 4]
pIC50 (OXA-10): 5.6
IC50 (OXA-10): 2260 nM
pIC50 (SPM-1): 4.8
IC50 (SPM-1): 13900 nM
IC50 (NDM-1): 40 nM
pIC50 (IMP-1): 4.7
pIC50 (BcII): 6.2
IC50 (BcII): 520 nM
pIC50 (CphA): > 4
IC50 (CphA): > 100000 nM
IC50 (PBP 3): > 100 µM
pIC50 (VIM-2): 7.8
IC50 (VIM-2): 14 nM
pIC50 (TEM-1): 9.4
IC50 (TEM-1): 0.3 nM

NCCNCc1ccc(C(=O)N[C@H]2Cc3cccc(C(=O)O)c3O[B-]2(O)O)cc1 [compound 5]
pIC50 (OXA-10): 4.9
IC50 (OXA-10): 12700 nM
pIC50 (SPM-1): 4.4
IC50 (SPM-1): 36300 nM
pIC50 (BcII): 5.9
IC50 (BcII): 1140 nM
pIC50 (CphA): > 4
IC50 (CphA): > 100000 nM
IC50 (PBP 3): > 100 µM
IC50 (VIM-2): 2 nM
pIC50 (TEM-1): 8.1
IC50 (TEM-1): 6 nM

Source: PMC4979060, “Structural basis of metallo-β-lactamase, serine-β-lactamase and penicillin-binding protein inhibition by cyclic boronates” (Nature Communications, 2016)
